According to patent publication US9644240B2, “Disease susceptibility” (Leiden University, priority 2009, dated 2017):
Residue numbers refer to the chain shown, from its start.

Tests used:
four MR haplotypes = assay: Ligand induced transactivation on a TAT-3 promoter in Cos-1 cells, comparison among haplotypes; type: cell-based, human; details: for difference in transactivation responses among the four MR haplotypes: reporter (fluc)/control (rluc) ratios, three experiments pooled
Description: (§1) Cos-1 cells (African green monkey kidney cells) were cultured in DMEM high glucose supplemented with 10% FCS (Gibco, Paisley, UK). Cells were seeded in 24-well plates (Greiner Bio-One, Alphen a/d Rijn, The Netherlands) at 3×10^4 cells/well in DMEM supplemented with charcoal-stripped serum. The cells were transfected the next day using SuperFect (Qiagen, Venlo, The Netherlands). hMR plasmids and the reporter plasmid TAT3-Luc (tyrosine amino transferase triple hormone response element) were used at 100 ng/well. The control plasmid pCMV-R (Promega, Leiden, The Netherlands) coding for Renilla luciferase controlled by cytomegalovirus (CMV) promoter was used (10 ng/well). One day after transfection, the cells were treated with cortisol (Sigma-Aldrich, Zwijndrecht, the Netherlands) in concentrations ranging from 0 to 10^−8 M. After 24 h of incubation the cells were harvested in passive lyses buffer (Promega) and firefly and Renilla luciferase activity was determined using a dual label reporter assay (Promega) and a luminometer (CENTRO XS3 LB960, Berthold, Bad Wildbad, Germany). Three separate experiments were performed and all three experiments were performed in triplicate.
(§2) The in vitro experiments were analyzed using GraphPad prism 4 (GraphPad software Inc, San Diego, Calif.). In the transactivation assays firefly/renilla luciferase ratios were normalized against the highest signal and background expression was subtracted. MR protein expression measured by western blot was normalized against γ-Tubulin. The differences between the four hMR variants were analyzed with one and two-way ANOVAs with Bonferroni posttests. In the radioligand binding assay one-binding-site curve fitting was used to determine the dissociation constant (Kd) and maximal binding (Bmax). The specific MR cortisol binding was obtained by subtracting the non-specific binding from the total binding. The difference in Kd and Bmax between MRI180 and MR180V was tested with a t-test. In vitro results are shown as the mean±SD.

MR180V = target: T1, MR180V (Homo sapiens, UniProt P08235); assay: [3H]Cortisol ligand binding assay, cytosol of transfected Cos-1 cells; details: mean±SD
T1 construct: expressed in transfected cells; host or cells: Cos-1 cells (African green monkey kidney)
T1 sequence (P08235 1-984): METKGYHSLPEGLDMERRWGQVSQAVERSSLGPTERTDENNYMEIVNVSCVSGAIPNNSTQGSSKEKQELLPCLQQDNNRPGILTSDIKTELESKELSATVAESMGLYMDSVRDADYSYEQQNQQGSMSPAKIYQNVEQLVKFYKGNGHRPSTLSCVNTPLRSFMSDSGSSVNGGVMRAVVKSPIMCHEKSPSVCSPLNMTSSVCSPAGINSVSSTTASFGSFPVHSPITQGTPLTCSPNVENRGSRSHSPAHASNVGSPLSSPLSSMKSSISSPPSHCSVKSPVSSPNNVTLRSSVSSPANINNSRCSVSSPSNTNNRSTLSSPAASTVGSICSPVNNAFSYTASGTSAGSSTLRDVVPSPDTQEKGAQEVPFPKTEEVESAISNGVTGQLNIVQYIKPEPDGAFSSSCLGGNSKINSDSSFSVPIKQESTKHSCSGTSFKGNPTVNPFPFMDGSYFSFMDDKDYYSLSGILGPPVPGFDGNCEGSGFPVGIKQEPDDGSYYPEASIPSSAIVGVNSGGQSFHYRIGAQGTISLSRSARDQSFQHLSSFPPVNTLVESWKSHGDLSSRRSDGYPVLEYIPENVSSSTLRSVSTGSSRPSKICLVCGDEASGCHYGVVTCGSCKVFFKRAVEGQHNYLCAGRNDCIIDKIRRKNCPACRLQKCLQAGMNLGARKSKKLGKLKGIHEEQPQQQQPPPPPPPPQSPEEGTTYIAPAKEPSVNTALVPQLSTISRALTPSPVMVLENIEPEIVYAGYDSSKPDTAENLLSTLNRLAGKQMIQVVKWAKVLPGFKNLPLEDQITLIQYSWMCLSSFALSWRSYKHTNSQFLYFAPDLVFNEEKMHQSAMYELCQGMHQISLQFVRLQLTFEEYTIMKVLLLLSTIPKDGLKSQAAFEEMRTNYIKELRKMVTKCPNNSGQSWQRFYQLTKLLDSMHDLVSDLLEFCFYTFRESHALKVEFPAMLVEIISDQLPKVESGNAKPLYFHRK
Description: (§3) Cos-1 cells were seeded in 20 cm plates (Greiner Bio-One, Alphen a/d Rijn, The Netherlands) at 2×10^6 cells/plate in DMEM supplemented with 5% charcoal-stripped serum. Cells were transfected the next day using Mirus Transit-COS reagent according to the manufacturer's protocol (Sopachem, Ochten, The Netherlands) and hMR plasmids were used at 30 μg/plate. After 24 hours medium was replaced with serum free DMEM and after another 24 hours cells were pelleted. All further steps are carried out at 0° C. Cells were resuspended in 3.5 ml buffer (5 mM Tris-HCl (pH 7.4), 1 mM EDTA, 1 mM B-Mercaptoethanol, 10 mM Na-Molybdate, 5% glycerol) per plate and 3×15 seconds homogenised using an electric homogenizer (Pro200, Pro scientific, Oxford, Conn., USA). The homogenate was centrifuged (100.000×g, 2° C.) to obtain cytosol.
(§4) 200 μl cytosol was incubated with [^3H]Cortisol (70 Ci/mmol, Amersham, Buckinghamshire, UK) to asses total binding or [^3H]Cortisol and a 500 fold excess of dexamethasone (Sigma-Aldrich, Zwijndrecht, the Netherlands) to asses non-specific binding. [^3H]Cortisol was used at 0.5 nM, 1 nM, 1.5 nM, 2.5 nM, 3.5 nM, 5 nM. After vortexing and 3 hours incubation on ice bound and free [^3H]Cortisol fractions were separated by Sephadex LH-20 as described previously (de Kloet et al., 1975). Fractions containing the receptor bound radioligand were collected, vortexed with 3 ml Ultima Gold scintillation fluid (Perkin Elmer, Waltham, Mass., USA) and radioactivity was measured in a liquid scintillation analyzer (1900CA Packard, Perkin Elmer). Three separate experiments were performed and all three experiments were performed in triplicate.
as §2, with “binding.” for “binding. The difference in Kd and Bmax between MRI180 and MR180V was tested with a t-test. In vitro results are shown as the mean±SD.”

MRI180 = target: T2, MRI180 (Homo sapiens, UniProt P08235); assay: as above; details: MRI180, mean±SD
T2 construct: expressed in transfected cells; host or cells: Cos-1 cells (African green monkey kidney)
T2 sequence (P08235 1-984): T1 sequence (P08235 1-984)
Description: as §3, §4
as §2, with “binding.” for “binding. The difference in Kd and Bmax between MRI180 and MR180V was tested with a t-test. In vitro results are shown as the mean±SD.”

MR Hap 4 (GG) = target: T3, MR Hap 4 (GG) (Homo sapiens, UniProt P08235); assay: Cortisol-induced transactivation assay, TAT3-Luc reporter in Cos-1 cells; type: cell-based; details: TAT-3 promoter, 24 h, read-out: EC50 of cortisol-induced luciferase transcription
T3 construct: expressed in transfected cells; host or cells: Cos-1 cells (African green monkey kidney)
T3 sequence (P08235 1-984 V241A): T1 sequence (P08235 1-984) with V241A
Description: as §1
as §2, with “binding.” for “binding. The difference in Kd and Bmax between MRI180 and MR180V was tested with a t-test. In vitro results are shown as the mean±SD.”

MR Hap 3 (CG) = target: T4, MR Hap 3 (CG) (Homo sapiens, UniProt P08235); assay: as above; type: cell-based; details: TAT-3 promoter, 24 h, read-out: EC50 of cortisol-induced luciferase transcription
T4 construct: expressed in transfected cells; host or cells: Cos-1 cells (African green monkey kidney)
T4 sequence (P08235 1-984 V241A): T1 sequence (P08235 1-984) with V241A
Description: as §1
as §2, with “binding.” for “binding. The difference in Kd and Bmax between MRI180 and MR180V was tested with a t-test. In vitro results are shown as the mean±SD.”

MR Hap 1 (GA) = target: T5, MR Hap 1 (GA) (Homo sapiens, UniProt P08235); assay: as above; type: cell-based; details: TAT-3 promoter, 24 h, read-out: EC50 of cortisol-induced luciferase transcription
T5 construct: expressed in transfected cells; host or cells: Cos-1 cells (African green monkey kidney)
T5 sequence (P08235 1-984): T1 sequence (P08235 1-984)
Description: as §1
as §2, with “binding.” for “binding. The difference in Kd and Bmax between MRI180 and MR180V was tested with a t-test. In vitro results are shown as the mean±SD.”

MR Hap 2 (CA) = target: T6, MR Hap 2 (CA) (Homo sapiens, UniProt P08235); assay: as above; type: cell-based; details: TAT-3 promoter, 24 h, read-out: EC50 of cortisol-induced luciferase transcription
T6 construct: expressed in transfected cells; host or cells: Cos-1 cells (African green monkey kidney)
T6 sequence (P08235 1-984): T1 sequence (P08235 1-984)
Description: as §1
as §2, with “binding.” for “binding. The difference in Kd and Bmax between MRI180 and MR180V was tested with a t-test. In vitro results are shown as the mean±SD.”

[1] = three experiments pooled, read-out: dissociation constant (Kd) of cortisol binding

| maximal binding (Bmax) of cortisol (MR180V) [binding sites/cell] | Kd (MR180V; [1]) [nM] | maximal binding (Bmax) of cortisol (MRI180) [binding sites/cell] | Kd (MRI180; [1]) [nM] | EC50 (MR Hap 4 (GG)) [nM] | EC50 (MR Hap 3 (CG)) [nM] | EC50 (MR Hap 1 (GA)) [nM] | EC50 (MR Hap 2 (CA)) [nM] | SMILES | difference in transactivation responses among the four MR haplotypes (four MR haplotypes) | maximal luciferase expression (Emax) (four MR haplotypes; Hap 1 (GA) and 4 (GG) compared with Hap 2 (CA) and 3 (CG)) |
| --- | --- | --- | --- | --- | --- | --- | --- | --- | --- | --- |
| – | – | – | – | – | – | – | – | C[C@]12CCC(=O)C=C1CC[C@@H]1[C@@H]2[C@@H](O)C[C@]2(C=O)[C@@H](C(=O)CO)CC[C@@H]12 [Aldosterone] | did not show significantly different responses | – |
| 7112±371 | 0.93 ± 0.16 | 6539±499 | 0.86 ± 0.2 | 0.073 | 0.019 | 0.039 | 0.017 | C[C@]12CCC(=O)C=C1CC[C@@H]1[C@@H]2[C@@H](O)C[C@@]2(C)[C@H]1CC[C@]2(O)C(=O)CO [cortisol] | significantly different responses | significant lower maximal luciferase expression (Emax) |
